In ChEMBL document CHEMBL5108030, “Structure activity relationships leading to the identification of the indirect activator of AMPK, R419” (Bioorg Med Chem, 2022):
Active and inactive are the calls of the source. The calls are words filed in the database; no cut-off is given here.

Experiments:
[1] = Volume of distribution at steady state in rat at 1 mg/kg,iv measured upto 10 hrs; format: ADME, organism-based; settings: in vivo, read-out: Vdss
Mus musculus [2] = assay: Hypoglycemic activity in high fat diet-induced obesity mouse model assessed as improvement in glucose tolerance at 200 mg/kg,po for 4 weeks by OGTT; format: functional, organism-based
[3] = AUC in diet-induced obesity model of C57BL/6J mouse at 200 mg/kg,po measured after 10 days; format: ADME, organism-based; set-up: time 10 day, dose 200 mg/kg, route po; settings: in vivo, 240 h
Mus musculus [4] = assay: Hypoglycemic activity in high fat diet-induced obesity mouse model assessed as decrease in AUC blood glucose at 200 mg/kg,po for 4 weeks by OGTT; format: functional, organism-based
[5] = biological target: AMP-activated protein kinase, AMPK; assay: Activation of AMPK in human HepG2 cells assessed as reduction in mitochondrial ATP production incubated for 1 hr; format: cell-based
Cytochrome P450 3A4 [6] = biological target: T1, Cytochrome P450 3A4 (Homo sapiens, UniProt P08684); assay: Inhibition of CYP3A4 (unknown origin) in presence of NADPH; format: ADME
Cytochrome P450 3A4 [7] = biological target: T1, Cytochrome P450 3A4; assay: Inhibition of CYP3A4 (unknown origin); format: ADME
[8] = AUC in diet-induced obesity model of C57BL/6J mouse at 100 mg/kg,po measured after 10 days; format: ADME, organism-based; set-up: time 10 day, dose 100 mg/kg, route po; settings: in vivo, 240 h
[9] = biological target: AMP-activated protein kinase, AMPK; assay: Activation of AMPK in human HepG2 cells assessed as increase in ACC phosphorylation at Ser79 incubated for 1 hr; format: cell-based
NCI-H1299 = assay: Antiproliferative activity against human NCI-H1299 cells assessed as cell growth inhibition incubated for 48 hrs by DAPI staining assay; format: functional, cell-based; settings: NCI-H1299, 48 h
hERG (KCNH2) = hERG (KCNH2) (Homo sapiens, UniProt Q12809); assay: Inhibition of human ERG at 3 uM; format: toxicity
[10] = AUC in C57BL/6J mouse at 5 mg/kg,po measured after 10 days; format: ADME, organism-based; set-up: time 10 day, dose 5 mg/kg, route po; settings: in vivo, 240 h
[11] = Oral bioavailability in rat at 5 mg/kg measured upto 10 hrs; format: ADME, organism-based; settings: in vivo
[12] = Clearance in rat at 1 mg/kg,iv measured upto 10 hrs; format: ADME, organism-based; settings: in vivo
[13] = Drug concentration in C57BL/6J mouse at 5 mg/kg,po measured after 10 days; format: ADME, organism-based; settings: in vivo, time 10 day, read-out: Drug uptake
[14] = AUC in high fat diet-induced obesity model of C57BL/6J mouse at 100 mg/kg,po measured after 10 days; format: ADME, organism-based; set-up: dose 100 mg/kg, time 10 day, route po; settings: in vivo, 240 h
[15] = AUC in rat at 5 mg/kg,po measured upto 10 hrs; format: ADME, organism-based; set-up: time < 10 hrs, dose 5 mg/kg, route po; settings: in vivo
A549 = assay: Antiproliferative activity against human A549 cells assessed as cell growth inhibition incubated for 48 hrs by DAPI staining assay; format: functional, cell-based; settings: A549, 48 h
[16] = Drug concentration in diet-induced obesity model of C57BL/6J mouse at 100 mg/kg,po measured after 10 days; format: ADME, organism-based; settings: in vivo, time 10 day, read-out: Drug uptake
[17] = Microsomal stability in human liver microsomes assessed as half life; format: ADME, Microsome
[18] = Drug concentration in high fat diet-induced obesity model of C57BL/6J mouse at 100 mg/kg,po measured after 10 days; format: ADME, organism-based; settings: in vivo, time 10 day, read-out: Drug uptake
[19] = Half life in rat at 1 mg/kg,iv measured upto 10 hrs; format: ADME, organism-based; settings: in vivo
[20] = Drug concentration in diet-induced obesity model of C57BL/6J mouse at 200 mg/kg,po measured after 10 days; format: ADME, organism-based; settings: in vivo, time 10 day, read-out: Drug uptake

T1 sequence (P08684 whole entry): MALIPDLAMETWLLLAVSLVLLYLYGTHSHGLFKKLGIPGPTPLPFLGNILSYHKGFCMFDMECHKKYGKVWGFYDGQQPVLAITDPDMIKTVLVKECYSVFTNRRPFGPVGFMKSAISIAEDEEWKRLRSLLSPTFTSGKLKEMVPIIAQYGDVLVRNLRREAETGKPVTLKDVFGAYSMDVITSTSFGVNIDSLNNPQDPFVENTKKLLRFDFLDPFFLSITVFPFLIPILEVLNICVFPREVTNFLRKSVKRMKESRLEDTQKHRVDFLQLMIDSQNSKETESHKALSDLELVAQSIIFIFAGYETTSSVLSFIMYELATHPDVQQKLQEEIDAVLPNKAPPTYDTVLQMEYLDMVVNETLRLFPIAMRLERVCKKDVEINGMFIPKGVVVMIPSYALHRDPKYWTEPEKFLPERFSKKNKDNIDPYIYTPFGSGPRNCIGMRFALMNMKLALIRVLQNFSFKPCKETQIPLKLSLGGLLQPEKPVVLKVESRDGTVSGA
Sequence of hERG (KCNH2) (Q12809 whole entry): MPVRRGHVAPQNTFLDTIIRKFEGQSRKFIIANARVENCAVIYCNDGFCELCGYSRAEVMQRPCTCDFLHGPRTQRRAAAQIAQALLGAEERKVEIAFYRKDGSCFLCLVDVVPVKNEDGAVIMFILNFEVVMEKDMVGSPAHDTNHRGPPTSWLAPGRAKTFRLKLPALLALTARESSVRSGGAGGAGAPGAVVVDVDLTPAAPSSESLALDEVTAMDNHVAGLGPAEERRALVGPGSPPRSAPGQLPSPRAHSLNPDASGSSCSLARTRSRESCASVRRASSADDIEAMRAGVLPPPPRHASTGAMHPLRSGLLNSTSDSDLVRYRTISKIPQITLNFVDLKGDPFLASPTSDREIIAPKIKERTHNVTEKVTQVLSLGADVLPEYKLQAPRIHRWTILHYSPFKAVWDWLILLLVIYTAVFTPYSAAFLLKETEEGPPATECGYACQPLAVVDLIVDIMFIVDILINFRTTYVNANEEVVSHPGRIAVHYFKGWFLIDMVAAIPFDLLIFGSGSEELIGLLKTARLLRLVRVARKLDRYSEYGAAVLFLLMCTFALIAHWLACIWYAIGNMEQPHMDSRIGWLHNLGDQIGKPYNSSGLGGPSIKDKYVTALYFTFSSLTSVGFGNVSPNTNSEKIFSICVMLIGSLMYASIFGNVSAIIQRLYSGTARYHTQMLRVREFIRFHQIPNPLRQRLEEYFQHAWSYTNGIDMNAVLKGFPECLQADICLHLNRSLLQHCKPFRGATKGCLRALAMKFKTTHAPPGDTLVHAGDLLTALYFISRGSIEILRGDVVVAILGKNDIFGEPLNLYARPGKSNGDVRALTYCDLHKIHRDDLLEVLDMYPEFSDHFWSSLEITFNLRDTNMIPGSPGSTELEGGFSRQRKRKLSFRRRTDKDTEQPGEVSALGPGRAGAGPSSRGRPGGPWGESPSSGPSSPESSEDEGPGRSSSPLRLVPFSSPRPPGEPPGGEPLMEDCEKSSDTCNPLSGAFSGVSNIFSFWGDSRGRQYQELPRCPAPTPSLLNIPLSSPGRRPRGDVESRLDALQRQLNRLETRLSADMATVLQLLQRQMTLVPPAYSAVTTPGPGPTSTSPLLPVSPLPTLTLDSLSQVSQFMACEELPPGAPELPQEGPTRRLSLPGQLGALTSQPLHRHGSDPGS

COc1ccc(C(=O)C2CCN(C(=O)c3ccc(C(=O)NC4CCN(Cc5ccc(C#N)cc5)CC4)cn3)CC2)cc1
Vd [1]: 15.1 L/kg | Activity (Mus musculus [2]): Active | AUC [3]: 2429 ng·h/kg | Activity (Mus musculus [4]): Active | IC50 [5]: 0.00282 µM | IC50 (Cytochrome P450 3A4 [6]): > 10 µM | IC50 (Cytochrome P450 3A4 [7]): > 10 µM | AUC [8]: 1339 ng·h/kg | EC50 [9]: 0.031 µM | IC50 (NCI-H1299): > 20 µM | inhibition at 3 µM (hERG (KCNH2)): 61% | AUC [10]: 937 ng·h/kg | bioavailability [11]: 46% | clearance [12]: 150 mL/min/kg | concentration at 240 h [13]: 440 ng/mL | AUC [14]: 1283 ng·h/kg | AUC at 10 h [15]: 256 ng·h/mL | IC50 (A549): > 20 µM | concentration at 240 h [16]: 84 ng/mL | half-life [17]: 1.18 h | concentration at 240 h [18]: 64 ng/mL | half-life [19]: 2.7 h | concentration at 240 h [20]: 140 ng/mL
